Tests used:
Assay type in all cases: cell-based, human
HUVEC [1] = test: HUVEC retention under unidirectional fluid flow; conditions: 15 dyne/cm^2, thirty minutes; CS-1 p=0.1, fibronectin p=0.07
Protocol: In addition to the above, 75×38×1 mm glass microscope slides (Fisher Scientific Research, Pittsburgh, Pa.) were sterilized and coated overnight with human plasma fibronectin or CS-1 peptide at 5 μg/cm^2, or with PBS only. Slides were incubated for one hour at room temperature with a 0.01% (w/v) sterile-filtered BSA solution. HCAEC or HUVEC were seeded in basal medium on slides at 1.85×10^4 cells/cm^2 and permitted to adhere for eight hours under static conditions at 37° C. Fluid flow was performed using parallel plate flow chambers connected to fluid flow loops, as described in Pavalko et al., Fluid shear stress inhibits TNF-alpha-induced apoptosis in osteoblasts: a role for fluid shear stress-induced activation of PI3-kinase and inhibition of caspase-3. J Cell Phys 194, 194, 2002. Briefly, endothelial cell-seeded slides were secured within flow chambers and connected to fluid flow loops. All flows were performed in a 37° C. environment with serum-free culture medium that was continually bathed in a 5% CO2 atmosphere. […] Fluorescence micrographs were captured as described above. […] Nuclei were counted from five equally distributed visual fields per slide and pooled together for each substrate condition. Data was calculated as percent (%) cell retention, where % retention=[(average nuclei count)flow÷(average nuclei count)static]×100.

HCAEC [2] = test: HCAEC cell binding assay to immobilized fibronectin polypeptides (crystal violet); conditions: immobilized peptide, 8 h, on average
Protocol: Human coronary artery endothelial cell (HCAEC) and human umbilical vein endothelial cell (HUVEC) primary human cells were obtained (Cambrex Corporation, East Rutherford, N.J.) and maintained according to the manufacturer's instructions at 37° C. and 5% CO2. HCAEC were grown in microvascular endothelial cell medium (EBM-2 MV, Cambrex) supplemented with 5% fetal bovine serum, 0.1% human epidermal growth factor, 0.04% hydrocortisone, 0.1% vascular endothelial growth factor, 0.4% human fibroblast growth factor-B, 0.1% R^3-insulin-like growth factor-1, 0.1% ascorbic acid, and 0.1% gentamicin and amphotericin-B (GA-1000). HUVEC were grown in endothelial cell medium (EBM, Cambrex) supplemented with 2% fetal bovine serum, 0.4% bovine brain extract, 0.1% human epidermal growth factor, 0.1% hydrocortisone, and 0.1% gentamicin and amphotericin-B (GA-1000). HCAEC and HUVEC were subcultured at 90-95% confluence using 0.05% trypsin-EDTA (Invitrogen, Carlsbad, Calif.) and used for experiments between passages 3-7 (HUVEC) or 5-11 (HCAEC).
HCAEC or HUVEC cell binding assays to immobilized recombinant fibronectin polypeptides were performed in order to ascertain which polypeptide(s) maximally support(s) alpha-4 integrin-mediated cell adhesion. Connecting Segment-1 (SEQ ID NO:1), EILDV (SEQ ID NO:2), RGDS (SEQ ID NO:3) (positive control), RGES (SEQ ID NO:4) (negative control), and EILEVPST (SEQ ID NO:5) (negative control) and were immobilized by drying overnight at room temperature in Immobilizer™ Amino 96-well microplates (Nalge Nunc International, Rochester, N.Y.). RGES, EILDV, and EILEVPST were incubated at a molar equivalent concentration equal to 200 μg RGDS per well. CS-1 was incubated at 50 μg/well. On a molar basis per well, this equates to approximately twenty-fold less CS-1 relative to RGDS. […] Cells were manually counted, and their concentration adjusted to yield a total cell population of 5×10^4 cells/well. […] Spectrometric absorbance values were read at 562 nm at room temperature using a ThermoMax microplate reader (Molecular Devices Corporation, Sunnyvale, Calif.).

HUVEC [3] = test: HUVEC spreading on coated glass slides, static; conditions: 5 μg/cm^2 coating, two hours, p<0.01
Protocol: (§1) 22×25×1 mm glass slides (Electron Microscopy Sciences, Hatfield, Pa.) were washed sequentially in 100% acetone, ethanol and HCl (2:1), and deionized and Milli-Q H2O, followed by autoclave sterilization. Slides were coated with one of the following PBS-solubilized extracellular matrix proteins at 5 μg/cm^2: (a) human type I collagen (Sigma), (b) human plasma fibronectin (Chemicon), or (c) CS-1 peptide (American Peptide Company). All coated slides were dried overnight at room temperature, rinsed with PBS, and blocked with a 0.01% (w/v) heat-inactivated BSA-solution at room temperature for one hour. HCAEC or HUVEC were seeded onto the slides in basal medium at 1×10^4 cells/cm^2 and permitted to attach and spread for two hours at 37° C. Cells were fixed with 4% (w/v) paraformaldehyde and co-stained for fluorescence microscopic analysis using Texas Red®-X phalloidin (Molecular Probes, Eugene, Oreg.) and DAPI (EMB Chemicals, Inc., San Diego, Calif.). Fluorescence micrographs were captured through a 10× objective on a Nikon Diaphot 200 inverted epifluorescence microscope (Nikon, Inc., Melville, N.Y.) using an Olympus DP70 digital camera (Olympus America, Inc., Melville, N.Y.). Image Tool software package version 3.0 (University of Texas Health Science Center, San Antonio, Tex.) was used to quantify endothelial cell surface area.

HCAEC [4] = test: HCAEC spreading on coated glass slides, static; conditions: 5 μg/cm^2 coating, two hours, p<0.0001
Protocol: as §1

CS-1: full-length 25 amino acid polypeptide, first 25 amino acid sequence of the fibronectin type IIICS domain (DELPQLVTLPHPNLHGPEILDVPST; Homo sapien)
HUVEC percent retention versus control substrate (HUVEC [1]): not statistically distinguishable from the control substrate | more of the total HCAEC population adhered relative to RGES (HCAEC [2]): about 20% | HUVEC spread area relative to the non-ECM-coated control substrate (HUVEC [3]): statistically significant increase | HCAEC spread area relative to the non-ECM-coated control substrate (HCAEC [4]): statistically significant increase
